Consider eleven compounds from patent publication US20250002475A1 (EPICS THERAPEUTICS, priority 2023, published 2025).

The subject of one assay is Kasumi-1 cells. Description: Kasumi-1 cellular viability assay (ATP-Lite, 72 h). It counts as cell-based. Conditions: Homo sapiens, ATP-Lite luminescence, % viability relative to DMSO. The essentials: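 Kasumi-1 AML cells, 15000/well in RPMI-1640 with 10% FBS, were exposed to compound titrations (0.1% final DMSO) for 72 h at 37 °C, 5% CO2. ATP-Lite One Step luminescence gave % viability versus DMSO control, and IC50 came from the concentration-response.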

Assay [1] has as its target T1, recombinant METTL3/METTL14 complex (Homo sapiens, UniProt Q86U44).
T1 construct: purchased Active Motif 311970; host or cells: Sf9 cells
Description: METTL3/14 Scintillation Proximity Assay (SPA), RNA methyltransferase activity. It counts as biochemical. Conditions: 5.31 nM METTL3/14 complex, 250 nM RNA substrate, 1 μM 3H-SAM, 90 min; for compounds marked * best of the two separated forms.

The test system of another assay is Caov-3 cells. Briefly: Caov-3 cellular viability assay (ATP-Lite, 72 h). The assay is classed as cell-based. Conditions: Homo sapiens, ATP-Lite luminescence, % viability relative to DMSO. The essentials:
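10000 cells/well treated 72 h at 37 °C, 5% CO2, in RPMI-1640 with 10% FBS and 0.1% DMSO final. Viability by ATP-Lite One Step luminescence. Expressed as % of DMSO control, with IC50 from each compound's concentration-response curve.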

T1 sequence (Q86U44 whole entry): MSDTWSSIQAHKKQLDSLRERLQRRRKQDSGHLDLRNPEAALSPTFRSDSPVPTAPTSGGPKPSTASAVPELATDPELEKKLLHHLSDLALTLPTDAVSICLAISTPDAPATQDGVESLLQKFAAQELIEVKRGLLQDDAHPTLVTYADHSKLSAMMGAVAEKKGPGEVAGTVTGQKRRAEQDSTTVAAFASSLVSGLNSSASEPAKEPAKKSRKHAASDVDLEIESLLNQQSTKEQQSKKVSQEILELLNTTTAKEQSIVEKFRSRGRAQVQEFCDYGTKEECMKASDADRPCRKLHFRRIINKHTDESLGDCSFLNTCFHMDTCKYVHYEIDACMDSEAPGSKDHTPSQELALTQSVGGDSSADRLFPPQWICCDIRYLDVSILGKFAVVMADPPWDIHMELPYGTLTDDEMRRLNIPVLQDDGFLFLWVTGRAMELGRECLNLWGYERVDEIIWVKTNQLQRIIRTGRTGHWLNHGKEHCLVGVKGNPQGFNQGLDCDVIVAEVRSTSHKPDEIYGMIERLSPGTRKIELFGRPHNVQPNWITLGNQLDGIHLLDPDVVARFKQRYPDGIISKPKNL
T1 sequence (Q9HCE5 whole entry partner): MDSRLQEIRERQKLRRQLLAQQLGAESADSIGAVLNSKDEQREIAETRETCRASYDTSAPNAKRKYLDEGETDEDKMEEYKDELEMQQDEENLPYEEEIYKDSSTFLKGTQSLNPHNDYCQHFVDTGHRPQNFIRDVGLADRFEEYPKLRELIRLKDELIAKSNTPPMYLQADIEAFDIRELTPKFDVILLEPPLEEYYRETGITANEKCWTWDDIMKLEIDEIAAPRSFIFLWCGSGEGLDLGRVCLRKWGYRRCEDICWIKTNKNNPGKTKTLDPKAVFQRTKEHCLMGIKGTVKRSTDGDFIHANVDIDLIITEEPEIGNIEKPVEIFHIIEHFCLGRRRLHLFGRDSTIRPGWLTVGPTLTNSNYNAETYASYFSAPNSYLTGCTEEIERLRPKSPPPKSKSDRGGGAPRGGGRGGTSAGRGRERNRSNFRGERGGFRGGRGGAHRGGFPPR

A word on the IC50: it is the concentration that inhibits the measured activity by half. Regarding `CC(n1cc(-c2cccn3cncc23)nn1)n1ccc(N2CCC[C@@H](NCC3CCC3)C2)cc1=O` (single isomer, unassigned) [Compound 124], the half-maximal inhibitory concentration (IC50) with Kasumi-1 cells was above 5 µM; in assay [1], at most 0.05 µM; with Caov-3 cells, 0.5 to 5 µM.

As for `CC(c1cnn(-c2cncc(N3CCCC3)n2)c1)c1ccc(N2CCC[C@@H](NCC3CC3)C2)cn1` (single isomer, unassigned) [Compound 354], the half-inhibitory concentration (IC50) is at most 0.5 µM in the assay on Kasumi-1 cells, at most 0.05 µM in assay [1] and at most 0.5 µM with Caov-3 cells.

Consider `c1cc(Cn2cc(-c3cncc(N4CCCC4)n3)nn2)ncc1N1CCC[C@@H](NCC2CCC2)C1` [Compound 282, (R)-N-(cyclobutylmethyl)-1-(6-((4-(6-(pyrrolidin-1-yl)pyrazin-2-yl)-1H-1,2,3-triazol-1-yl)methyl)pyridin-3-yl)piperidin-3-amine], for which the concentration for half-maximal inhibition (IC50) in the assay on Kasumi-1 cells was at most 0.5 µM; in assay [1], at most 0.05 µM; with Caov-3 cells, at most 0.5 µM.

In the case of `CC(n1cc(-c2cncc(N3CCN(C)CC3)c2)nn1)n1ccc(N2CCC[C@@H](NCC3CCC3)C2)cc1=O` (single isomer, unassigned) [Compound 168], the IC50 with Kasumi-1 cells was 0.5 to 5 µM; in assay [1] it was at most 0.05 µM; with Caov-3 cells, at most 0.5 µM.

Regarding `CC(c1ccc(N2CCC[C@@H](NCC3CC3)C2)nn1)n1cnc(-c2cncc(N3CCCC3)n2)c1` (single isomer, unassigned) [Compound 340], the IC50 in the assay on Kasumi-1 cells was at most 0.5 µM; in assay [1], at most 0.05 µM; with Caov-3 cells, at most 0.5 µM.

As for `COc1cc(-c2cn(Cc3ccc(N4CCCC(N5CCC(C)CC5)C4)nn3)nn2)c2cn[nH]c2c1` (stereo not drawn) [Compound 007, 6-methoxy-4-(1-((6-(4-methyl-[1,3′-bipiperidin]-1′-yl)pyridazin-3-yl)methyl)-1H-1,2,3-triazol-4-yl)-1H-indazole], the IC50 in the assay with Kasumi-1 cells is 0.5 to 5 µM; in assay [1], at most 0.05 µM; in the assay on Caov-3 cells it was 0.5 to 5 µM.

`c1cc(C2(n3cc(-c4cncc(N5CC6CC6C5)n4)nn3)COC2)ncc1N1CCC[C@@H](NCC2CCC2)C1` (stereo partly drawn) [Compound 291, (3R)-1-(6-(3-(4-(6-(3-azabicyclo[3.1.0]hexan-3-yl)pyrazin-2-yl)-1H-1,2,3-triazol-1-yl)oxetan-3-yl)pyridin-3-yl)-N-(cyclobutylmethyl)piperidin-3-amine]: the IC50 with Kasumi-1 cells was at most 0.5 µM; in assay [1] it was at most 0.05 µM; in the assay with Caov-3 cells it was at most 0.5 µM.

On to `CC(n1cc(-c2cncc(N(C)C)n2)nn1)n1ccc(N2CCC[C@@H](NCC3CCC3)C2)cc1=O` (stereo partly drawn) [Compound 164, 4-((R)-3-((cyclobutylmethyl)amino)piperidin-1-yl)-1-(1-(4-(6-(dimethylamino)pyrazin-2-yl)-1H-1,2,3-triazol-1-yl)ethyl)pyridin-2(1H)-one], for which the half-inhibitory concentration (IC50) in the assay on Kasumi-1 cells was at most 0.5 µM; in assay [1], at most 0.05 µM; in the assay with Caov-3 cells, at most 0.5 µM.

With `CC(n1cc(-c2cncc(N3CCCC3)n2)nn1)n1ccc(N2CCC[C@@H](NCC3CC3)C2)cc1=O` (single isomer, unassigned) [Compound 180], the IC50 with Kasumi-1 cells was at most 0.5 µM; in assay [1], at most 0.05 µM; with Caov-3 cells, at most 0.5 µM.

Consider `c1ncc(C2CC2)cc1-c1nnc(C2(c3ccc(N4CCC[C@@H](NCC5CC5)C4)cn3)COC2)s1` [Compound 352, (R)-N-(cyclopropylmethyl)-1-(6-(3-(5-(5-cyclopropylpyridin-3-yl)-1,3,4-thiadiazol-2-yl)oxetan-3-yl)pyridin-3-yl)piperidin-3-amine], for which the IC50 in the assay on Kasumi-1 cells is at most 0.5 µM; in assay [1], at most 0.05 µM; with Caov-3 cells, at most 0.5 µM.

As for `COc1cncc(-c2cn(C(C)n3ccc(N4CCC[C@@H](NCC5CC5)C4)cc3=O)nn2)c1` (single isomer, unassigned) [Compound 232], the IC50 is at most 0.5 µM in the assay on Kasumi-1 cells, at most 0.05 µM in assay [1] and at most 0.5 µM in the assay on Caov-3 cells.
